The record followed here is ChEMBL document CHEMBL5226288, “A perspective on medicinal chemistry approaches towards adenomatous polyposis coli and Wnt signal based colorectal cancer inhibitors” (Eur J Med Chem, 2021).

The subject of experiment [1] is SW480. In words: Antiproliferative activity against human SW480 cells assessed as reduction in cell proliferation. In kind it is functional, cell-based.
The subject of experiment [2] is DLD-1. In words: Antiproliferative activity against human DLD-1 cells assessed as reduction in cell proliferation. In kind it is functional, cell-based.
Experiment [3] relates to HCT-116. The experiment in a line: Antiproliferative activity against human HCT-116 cells assessed as decrease in cell growth incubated for 24 hrs by MTS assay. In kind it is functional, cell-based. To be noted: HCT-116, 24 h. (Tetrazolium dyes change colour on reduction, which living cells bring about.)
In experiment [4] the test system is DLD-1. The experiment in a line: Antiproliferative activity against human DLD-1 cells assessed as reduction in cell viability by MTS assay. Format: functional, cell-based.
Experiment [5] concerns SW480. The experiment in a line: Antiproliferative activity against human SW480 cells assessed as reduction in cell viability. Format: functional, cell-based.
Experiment [6] has as its system HCT-116. The experiment in a line: Antiproliferative activity against human HCT-116 cells assessed as reduction in cell viability. Format: functional, cell-based.
For experiment [7], the system named is HCT-116. The experiment in a line: Antiproliferative activity against human HCT-116 cells assessed as reduction in cell proliferation incubated for 24 hrs by MTT assay. Format: functional, cell-based. To be noted: HCT-116, 24 h.
The test system of experiment [8] is SW480. The experiment in a line: Antiproliferative activity against human SW480 cells assessed as reduction in cell proliferation incubated for 24 hrs by MTT assay. To be noted: SW480, 24 h. Format: functional, cell-based.
In experiment [9] the test system is HCT-116. The experiment in a line: Cytotoxicity in human HCT-116 cells expressing wild type APC assessed as reduction in cell viability incubated for 96 hrs by Cell Titer-Glo assay. To be noted: HCT-116, 96 h. In kind it is functional, cell-based.
For experiment [10], the system named is DLD-1. In words: Cytotoxicity in human DLD-1 cells expressing APC mutant assessed as reduction in cell viability incubated for 96 hrs by Cell Titer-Glo assay. The note with it: DLD-1, 96 h. In kind it is functional, cell-based. For orientation: Cellular ATP, detected with luciferase, serves as a proxy for viable cell number.
Experiment [11] relates to DLD-1. In words: Anticancer activity against human DLD-1 cells assessed as reduction in cell viability. In kind it is functional, cell-based.
The subject of experiment [12] is SW480. The experiment in a line: Anticancer activity against human SW480 cells assessed as reduction in cell viability. In kind it is functional, cell-based.
Experiment [13] concerns DLD-1. In words: Anticancer activity against human DLD-1 cells assessed as reduction in cell growth incubated for 72 hrs by MTT assay. Format: functional, cell-based. The note with it: DLD-1, 72 h.
Experiment [14] relates to SW480. In words: Anticancer activity against human SW480 cells assessed as reduction in cell growth incubated for 72 hrs by MTT assay. Format: functional, cell-based. To be noted: SW480, 72 h.
In experiment [15] the test system is HCT-116. The experiment in a line: Anticancer activity against human HCT-116 cells assessed as reduction in cell growth incubated for 72 hrs by MTT assay. Format: functional, cell-based. The note with it: HCT-116, 72 h.
Another experiment deals with LoVo. The experiment in a line: Antiproliferative activity against human LoVo cells assessed as decrease in cell viability by MTT assay. Format: functional, cell-based.
For experiment [16], the system named is SW480. In words: Anticancer activity against human SW480 cells assessed as decrease in cell growth incubated for 72 hrs by tryphan blue staining based cell counter analysis. Format: functional. The note with it: SW480, 72 h.
In experiment [17] the test system is HCT-116. The experiment in a line: Anticancer activity against human HCT-116 cells assessed as decrease in cell growth incubated for 72 hrs by tryphan blue staining based cell counter analysis. Format: functional. To be noted: HCT-116, 72 h.
Experiment [18] has as its system HCT-116. In words: Anticancer activity against human HCT-116 cells assessed as reduction in cell viability incubated for 24 hrs by MTT assay. Format: functional, cell-based. To be noted: HCT-116, 24 h.
For experiment [19], the system named is SW480. The experiment in a line: Anticancer activity against human SW480 cells assessed as reduction in cell viability incubated for 24 hrs by MTT assay. Format: functional, cell-based. To be noted: SW480, 24 h.

Turning to `O=C(O)c1ccc(-n2nc(-c3ccccc3O)nc2-c2ccccc2O)cc1` [DEFERASIROX], the IC50 (as a rule, the concentration that gives 50% inhibition) in the experiment on SW480 [1] was found to be 3.9 µM; in the experiment with DLD-1 [2], 3.4 µM. Regarding `CC(=O)N(O)CCCCCNC(=O)CCC(=O)N(O)CCCCCNC(=O)CCC(=O)N(O)CCCCCN` [DEFEROXAMINE], the IC50 amounted to 3.8 µM in the experiment on SW480 [1] and 2.9 µM with DLD-1 [2].

For the compound `O=C(O[C@@H]1Cc2c(O)cc(O)cc2O[C@@H]1c1cc(O)c(O)c(O)c1)c1cc(O)c(O)c(O)c1` [EPIGALOCATECHIN GALLATE], the IC50 in the experiment with HCT-116 [3] turned out to be 5 µM. On to `O=c1c(-c2ccc(O)cc2)coc2cc(O)cc(O)c12` [GENISTEIN], for which, in the experiment on DLD-1 [4], the IC50 stood at 50 µM. As for `CC(C)=CCc1c(O)ccc(C(=O)/C=C/c2ccc(O)cc2)c1O` [ISOBAVACHALCONE], the IC50 with SW480 [5] amounted to 44.1 µM; in the experiment with HCT-116 [6], 75.5 µM.

With `CC1(C)C=Cc2c(ccc(C(=O)/C=C/c3ccccc3)c2O)O1` [LONCHOCARPIN], the IC50 with HCT-116 [7] and in the experiment with SW480 [8] was 20 µM throughout. For `CC[C@H](C)C(=O)O[C@H]1CCC=C2C=C[C@H](C)[C@H](CC[C@@H]3C[C@@H](O)CC(=O)O3)[C@H]21` [MEVASTATIN], the IC50 in the experiment with HCT-116 [9] turned out to be 18.6 µM; in the experiment with DLD-1 [10] it was 3.2 µM. As to `S=C=NCCc1ccccc1` [PHENETHYLISOTHIOCYANATE], the IC50 was 54.6 µM in the experiment with DLD-1 [11] and 35.6 µM in the experiment on SW480 [12]. Regarding `O=C(/C=C/C=C/c1ccc2c(c1)OCO2)N1CCCCC1` [PIPERINE], the IC50 in the experiment on DLD-1 [13], in the experiment with SW480 [14] and in the experiment with HCT-116 [15] was less than 200 µM each time. On to `Oc1ccc(/C=C/c2cc(O)cc(O)c2)cc1` [RESVERATROL], for which the IC50 in the experiment with LoVo was found to be 55 µM. Regarding `COc1cc(C2Oc3cc([C@H]4Oc5cc(O)cc(O)c5C(=O)[C@@H]4O)ccc3OC2CO)ccc1O` (some centres not stated) [SILIBININ], the IC50 in the experiment on SW480 [16] and with HCT-116 [17] was 50 µM throughout. `CC1=C(CO)C(=O)O[C@@H]([C@@H](C)[C@H]2CC[C@H]3[C@@H]4C[C@H]5O[C@]56[C@@H](O)C=CC(=O)[C@]6(C)[C@H]4CC[C@]23C)C1` [WITHAFERIN A]: the IC50 in the experiment on HCT-116 [18] worked out at 3.7 µM; in the experiment with SW480 [19], 4.9 µM.
